This is an account of results in patent publication US12331059B2 (priority 2019, dated 2025).

For the first assay, the system named is MV4-11 cells. Kind of assay: cells. Type of assay: cell-based. The conditions noted are these: Homo sapiens, MV4-11, 48 h.
As for `Cc1ncsc1-c1ccc(CNC(=O)C2CC(O)CN2C(=O)C(NC(=O)CNC(=O)OCCCC2OC3OC4(C)CCC5C(C)CCC(C2C)C35OO4)C(C)(C)C)cc1` (stereo not drawn) [CL-4], 0.91 µM corresponded to half-maximal inhibition (IC50).

As for `Cc1ncsc1-c1ccc(CNC(=O)C2CC(O)CN2C(=O)C(NC(=O)CCOCCNC(=O)OCCC2OC3OC4(C)CCC5C(C)CCC(C2C)C35OO4)C(C)(C)C)cc1` (stereo not drawn) [CL-17], the half-maximal inhibitory concentration (IC50) was 0.3 µM.

The molecule `Cc1ncsc1-c1ccc(CNC(=O)C2CC(O)CN2C(=O)C(NC(=O)CCCNC(=O)OCCCC2OC3OC4(C)CCC5C(C)CCC(C2C)C35OO4)C(C)(C)C)cc1` (stereo not drawn) [CL-5] showed a half-maximal inhibitory concentration (IC50) of 0.55 µM.

Consider `Cc1ncsc1-c1ccc(CNC(=O)C2CC(O)CN2C(=O)C(NC(=O)CCNC(=O)OCCC2OC3OC4(C)CCC5C(C)CCC(C2C)C35OO4)C(C)(C)C)cc1` (stereo not drawn) [CL-24], for which half-maximal inhibition (IC50) required 0.5 µM.

In turn, `Cc1ncsc1-c1ccc(CNC(=O)C2CC(O)CN2C(=O)C(NC(=O)Cc2ccc(CNC(=O)OCCCC3OC4OC5(C)CCC6C(C)CCC(C3C)C46OO5)cc2)C(C)(C)C)cc1` (stereo not drawn) [CL-7] came in with an IC50 of 0.46 µM. The IC50 values of the last two molecules are within 1.5-fold of each other.

In turn, `Cc1ncsc1-c1ccc(CNC(=O)C2CC(O)CN2C(=O)C(NC(=O)CCCNC(=O)OCCC2OC3OC4(C)CCC5C(C)CCC(C2C)C35OO4)C(C)(C)C)cc1` (stereo not drawn) [CL-21] registered a concentration for half-maximal inhibition (IC50) of 0.84 µM.

For the molecule `Cc1ncsc1-c1ccc(CNC(=O)C2CC(O)CN2C(=O)C(NC(=O)CCOCCOCCOCCNC(=O)OCCC2OC3OC4(C)CCC5C(C)CCC(C2C)C35OO4)C(C)(C)C)cc1` (stereo not drawn) [CL-19], the 50% inhibitory concentration (IC50) is 0.5 µM.

`Cc1ncsc1-c1ccc(CNC(=O)C2CC(O)CN2C(=O)C(NC(=O)CNC(=O)CC2OC3OC4(C)CCC5C(C)CCC(C2C)C35OO4)C(C)(C)C)cc1` (stereo not drawn) [CL-12] displayed a concentration for half-maximal inhibition (IC50) of 1.1 µM.

As to `Cc1ncsc1-c1ccc(CNC(=O)C2CC(O)CN2C(=O)C(NC(=O)CCCNC(=O)CC2OC3OC4(C)CCC5C(C)CCC(C2C)C35OO4)C(C)(C)C)cc1` (stereo not drawn) [CL-13], the 50% inhibitory concentration (IC50) amounted to 3.1 µM.

The molecule `Cc1ncsc1-c1ccc(CNC(=O)C2CC(O)CN2C(=O)C(NC(=O)CCCNC(=O)C23CC4CC(C2)C2(OOC5(CCCCC5)O2)C(C4)C3)C(C)(C)C)cc1` (stereo not drawn) [CL-29] came in with an IC50 of 3.5 µM.

The molecule `Cc1ncsc1-c1ccc(CNC(=O)C2CC(O)CN2C(=O)C(NC(=O)CCOCCOCCNC(=O)CC2OC3OC4(C)CCC5C(C)CCC(C2C)C35OO4)C(C)(C)C)cc1` (stereo not drawn) [CL-10] registered a half-maximal inhibitory concentration (IC50) of 44.5 µM. Against the preceding molecule, the IC50 is about 13-fold higher.

The molecule `Cc1ncsc1-c1ccc(CNC(=O)C2CC(O)CN2C(=O)C(NC(=O)CNC(=O)C23CC4CC(C2)C2(OOC5(CCCCC5)O2)C(C4)C3)C(C)(C)C)cc1` (stereo not drawn) [CL-28] yielded a half-maximal inhibitory concentration (IC50) of 9.72 µM. This IC50 lies about 4.6-fold lower than the previous one.

`Cc1ncsc1-c1ccc(CNC(=O)C2CC(O)CN2C(=O)C(NC(=O)CCCCNC(=O)C23CC4CC(C2)C2(OOC5(CCCCC5)O2)C(C4)C3)C(C)(C)C)cc1` (stereo not drawn) [CL-30] yielded an IC50 of 8.31 µM.

The molecule `Cc1ncsc1-c1ccc(CNC(=O)C2CC(O)CN2C(=O)C(NC(=O)Cc2ccc(CNC(=O)CC3OC4OC5(C)CCC6C(C)CCC(C3C)C46OO5)cc2)C(C)(C)C)cc1` (stereo not drawn) [CL-15] gave an IC50 of 0.52 µM.

As to `Cc1ncsc1-c1ccc(CNC(=O)C2CC(O)CN2C(=O)C(NC(=O)Cc2ccc(CNC(=O)C34CC5CC(C3)C3(OOC6(CCCCC6)O3)C(C5)C4)cc2)C(C)(C)C)cc1` (stereo not drawn) [CL-31], the IC50 worked out at 3.04 µM. Compared with the last molecule, the IC50 is about 5.8-fold higher.

In turn, `Cc1ncsc1-c1ccc(CNC(=O)C2CC(O)CN2C(=O)C(NC(=O)CCCCNC(=O)OCCC2OC3OC4(C)CCC5C(C)CCC(C2C)C35OO4)C(C)(C)C)cc1` (stereo not drawn) [CL-22] showed an IC50 of 0.2 µM.

With `Cc1ncsc1-c1ccc(CNC(=O)C2CC(O)CN2C(=O)C(NC(=O)CCOCCOCCNC(=O)OCCCC2OC3OC4(C)CCC5C(C)CCC(C2C)C35OO4)C(C)(C)C)cc1` (stereo not drawn) [CL-2], half-maximal inhibition (IC50) required 0.59 µM.

On to `Cc1ncsc1-c1ccc(CNC(=O)C2CC(O)CN2C(=O)C(NC(=O)CCNC(=O)C23CC4CC(C2)C2(OOC5(CCCCC5)O2)C(C4)C3)C(C)(C)C)cc1` (stereo not drawn) [CL-32], for which the half-maximal inhibitory concentration (IC50) stood at 3.38 µM.

`Cc1ncsc1-c1ccc(CNC(=O)C2CC(O)CN2C(=O)C(NC(=O)CCOCCOCCOCCNC(=O)CC2OC3OC4(C)CCC5C(C)CCC(C2C)C35OO4)C(C)(C)C)cc1` (stereo not drawn) [CL-11] showed an IC50 of 29.6 µM. This IC50 lies about 8.8-fold higher than the previous one.

Consider `Cc1ncsc1-c1ccc(CNC(=O)C2CC(O)CN2C(=O)C(NC(=O)CCNC(=O)OCCCC2OC3OC4(C)CCC5C(C)CCC(C2C)C35OO4)C(C)(C)C)cc1` (stereo not drawn) [CL-8], for which it took 0.24 µM to reach half-maximal inhibition (IC50).

For the molecule `Cc1ncsc1-c1ccc(CNC(=O)C2CC(O)CN2C(=O)C(NC(=O)Cc2ccc(CNC(=O)OCCC3OC4OC5(C)CCC6C(C)CCC(C3C)C46OO5)cc2)C(C)(C)C)cc1` (stereo not drawn) [CL-23], the concentration for half-maximal inhibition (IC50) amounted to 6.2 µM.

With `Cc1ncsc1-c1ccc(CNC(=O)C2CC(O)CN2C(=O)C(NC(=O)CCOCCOCCOCCNC(=O)OCCCC2OC3OC4(C)CCC5C(C)CCC(C2C)C35OO4)C(C)(C)C)cc1` (stereo not drawn) [CL-3], it took 0.52 µM to reach half-maximal inhibition (IC50).

As to `Cc1ncsc1-c1ccc(CNC(=O)C2CC(O)CN2C(=O)C(NC(=O)CCOCCOCCNC(=O)C23CC4CC(C2)C2(OOC5(CCCCC5)O2)C(C4)C3)C(C)(C)C)cc1` (stereo not drawn) [CL-26], the IC50 amounted to 8.1 µM.

`Cc1ncsc1-c1ccc(CNC(=O)C2CC(O)CN2C(=O)C(NC(=O)CCOCCOCCOCCNC(=O)C23CC4CC(C2)C2(OOC5(CCCCC5)O2)C(C4)C3)C(C)(C)C)cc1` (stereo not drawn) [CL-27]: the IC50 amounted to 12 µM.

Take `Cc1ncsc1-c1ccc(CNC(=O)C2CC(O)CN2C(=O)C(NC(=O)CCOCCNC(=O)CC2OC3OC4(C)CCC5C(C)CCC(C2C)C35OO4)C(C)(C)C)cc1` (stereo not drawn) [CL-9]: half-maximal inhibition (IC50) required 4.67 µM.

In turn, `Cc1ncsc1-c1ccc(CNC(=O)C2CC(O)CN2C(=O)C(NC(=O)CCOCCOCCNC(=O)OCCC2OC3OC4(C)CCC5C(C)CCC(C2C)C35OO4)C(C)(C)C)cc1` (stereo not drawn) [CL-18] returned an IC50 of 2.66 µM.

`Cc1ncsc1-c1ccc(CNC(=O)C2CC(O)CN2C(=O)C(NC(=O)CCCCNC(=O)OCCCC2OC3OC4(C)CCC5C(C)CCC(C2C)C35OO4)C(C)(C)C)cc1` (stereo not drawn) [CL-6] came in with an IC50 of 5.3 µM. This IC50 lies about 2-fold higher than the previous one.

As for `Cc1ncsc1-c1ccc(CNC(=O)C2CC(O)CN2C(=O)C(NC(=O)CCNC(=O)CCC(=O)NN2C(=O)C(C)C3CCC(C)C4CCC5(C)OOC43C2O5)C(C)(C)C)cc1` (stereo not drawn) [CL-40], inhibition was half-maximal at 6.08 µM (IC50). The IC50 values of the last two molecules are within 1.5-fold of each other.

Molecule `Cc1ncsc1-c1ccc(CNC(=O)C2CC(O)CN2C(=O)C(NC(=O)CCOCCNC(=O)C23CC4CC(C2)C2(OOC5(CCCCC5)O2)C(C4)C3)C(C)(C)C)cc1` (stereo not drawn) [CL-25] gave an IC50 of 5.5 µM.

Another assay relates to U937 leukemia cells.
Assay: not given
More on the design: species or system NSG mice. Conditions: mouse.
`Cc1ncsc1-c1ccc(CNC(=O)C2CC(O)CN2C(=O)C(NC(=O)CCNC(=O)OCCCC2OC3OC4(C)CCC5C(C)CCC(C2C)C35OO4)C(C)(C)C)cc1` (stereo not drawn) [CL-8]: the “inhibition towards the growth of U937 leukemia cells in vivo” value was “strong inhibition”.

Still in this assay, the particulars now being: mouse, in vivo.
With `Cc1ncsc1-c1ccc(CNC(=O)C2CC(O)CN2C(=O)C(NC(=O)CCNC(=O)OCCCC2OC3OC4(C)CCC5C(C)CCC(C2C)C35OO4)C(C)(C)C)cc1` (stereo not drawn) [CL-8], the “The proportion of human leukemia cells in bone marrow of mice” value was 0.38 ± 0.08, the “The proportion of human leukemia cells in peripheral blood of mice” value amounted to 0.96 ± 0.16 and the “The proportion of human leukemia cells in spleen of mice” value was 11.39 ± 21.3.

Regarding `C[C@H]1[C@H](OC(=O)CCC(=O)O)O[C@@H]2O[C@@]3(C)CC[C@H]4[C@H](C)CC[C@@H]1[C@@]24OO3` [artesunate, reference compound], the “The proportion of human leukemia cells in bone marrow of mice” value worked out at 91.28 ± 2.20, the “The proportion of human leukemia cells in peripheral blood of mice” value is listed as 21.92 ± 2.58 and the “The proportion of human leukemia cells in spleen of mice” value is reported as 49.77 ± 9.28.
